Minimal effective dose, inhibition and IC50 data for 24 compounds are collected here from US20220227773A1, “FUSED RING COMPOUND, PREPARATION METHOD THEREFOR AND USE THEREOF” (SHANGHAI INSTITUTE OF MATERIA MEDICA, CHINESE ACADEMY OF …, priority 2019, published 2022).

Assay [1] deals with mice. Briefly: Forced swimming test (FST) in mice. Type of assay: in vivo. The settings on record: Mus musculus. As for the experimental part: (§1) 3. In Vivo Drug Efficacy Test (Mouse Forced Swimming Model)
(§2) Experimental animals: C57BL/6 mice (Shanghai Xipuer-Bikai Experimental Animal Co., Ltd.), male, 6 weeks old, weighing 15-20 g. ICR mice (Shanghai Xipuer-Bikai Experimental Animal Co., Ltd.), male, 6 weeks old, weighing 20-25 g. All the ordered mice were fed in a standard environment for 2-3 weeks before test.
Forced Swimming Test (FST): in the forced swimming apparatus, the water level is 45 cm, and the water temperature is 25° C. Before the experiment, the mice were placed in the experimental room for 1 h for adapting to the environment. At the beginning of the experiment, the mice were placed in the apparatus for 6min, and the whole process was recorded with a camera. When analyzing the data, only the immobility time of the mice in the last 4 min was counted, and the result was expressed by mean±SD.
(§3) The results were analyzed by one-way analysis of variance. […] FST: Forced swimming test; TST: Tail suspension test.

For assay [2], the target named is T1, human recombinant 5-HT3 receptor (Homo sapiens, UniProt P46098).
T1 construct: expressed in transfected cells; host or cells: HEK293 (membrane preparation)
T1 sequence (P46098 24-478): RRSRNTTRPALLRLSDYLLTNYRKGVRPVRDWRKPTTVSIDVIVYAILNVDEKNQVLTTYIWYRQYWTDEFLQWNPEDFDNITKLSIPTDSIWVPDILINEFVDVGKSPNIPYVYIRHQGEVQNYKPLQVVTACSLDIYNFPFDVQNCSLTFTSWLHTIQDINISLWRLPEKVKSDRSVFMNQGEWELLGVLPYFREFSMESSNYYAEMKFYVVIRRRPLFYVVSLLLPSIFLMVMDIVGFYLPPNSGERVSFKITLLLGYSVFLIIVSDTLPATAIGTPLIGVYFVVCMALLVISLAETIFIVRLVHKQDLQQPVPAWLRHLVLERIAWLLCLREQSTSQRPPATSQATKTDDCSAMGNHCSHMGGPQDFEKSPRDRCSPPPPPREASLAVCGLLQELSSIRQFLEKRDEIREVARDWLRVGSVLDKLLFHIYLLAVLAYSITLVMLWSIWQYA
Briefly: 5-HT3 receptor affinity assay (3H-BRL 43694 radioligand binding). The settings on record: read-out: inhibition (%) at 1 μM.

In assay [3] the target is T2, hSERT (5-HTT) in HEK293-hSERT cells (Homo sapiens, UniProt P31645).
T2 construct: expressed in transfected cells; host or cells: HEK293
T2 sequence (P31645 whole entry): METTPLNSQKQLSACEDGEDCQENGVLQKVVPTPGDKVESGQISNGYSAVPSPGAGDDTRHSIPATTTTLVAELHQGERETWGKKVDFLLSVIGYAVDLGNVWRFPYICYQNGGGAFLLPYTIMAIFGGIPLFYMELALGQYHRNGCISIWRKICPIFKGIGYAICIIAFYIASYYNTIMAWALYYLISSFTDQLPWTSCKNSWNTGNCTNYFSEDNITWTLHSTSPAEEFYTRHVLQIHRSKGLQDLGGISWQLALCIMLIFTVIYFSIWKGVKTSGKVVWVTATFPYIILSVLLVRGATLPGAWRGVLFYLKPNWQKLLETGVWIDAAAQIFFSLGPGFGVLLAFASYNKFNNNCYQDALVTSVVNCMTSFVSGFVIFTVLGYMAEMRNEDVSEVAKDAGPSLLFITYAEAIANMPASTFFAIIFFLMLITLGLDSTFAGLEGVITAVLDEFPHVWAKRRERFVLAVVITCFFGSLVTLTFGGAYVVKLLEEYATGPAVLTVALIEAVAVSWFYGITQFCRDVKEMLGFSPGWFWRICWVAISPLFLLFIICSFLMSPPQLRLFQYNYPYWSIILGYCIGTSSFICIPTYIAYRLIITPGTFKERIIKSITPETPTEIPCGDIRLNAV
Briefly: 5-HTT reuptake activity assay (fluorescence neurotransmitter transporter uptake kit). The settings on record: serotonin reuptake inhibition. Type of assay: cell-based.

Assay [4] relates to mice. Put plainly: Tail suspension test (TST) in mice. Type of assay: in vivo. As to conditions: Mus musculus, ip. As for the experimental part:
as §1, §2
Tail suspension test (TST): the mice were tail fixed to the apparatus with a medical tape for 6 min, the whole process was recorded by the camera. When analyzing the data, only the immobility time of the mice in the last 4 min was counted.
as §3

Where [5] appears, read: po, read-out: Effective dose (mg/kg).
Setting [6] is: 1 μM compound, 0.5 nM 3H-BRL 43694, HEK293 membranes.
Where [7] appears, read: TST, dose significantly reducing immobility time of mice, read-out: Effective dose.
Setting [8] is: ip, read-out: Effective dose (mg/kg).
[9] abbreviates: read-out: Effective dose (mg/kg).

In general, inhibition refers to the drop in the measured response relative to a control, in per cent. What is called IC50 is the concentration at which inhibition is half-maximal. High values mean lower potency, low ones higher potency.

Counter-ions that a name gives are not always drawn. Like-named read-outs stand apart in the source and are kept apart here.

On to `c1ccc2cc(N3CC4CNCC4C3)ccc2c1` (stereo not drawn) [Example 1, 2-(naphthalen-2-yl)octahydropyrrolo[3,4-c]pyrrole], for which the minimal effective dose in the assay with mice [1] (setting [5]) came to 5 mg/kg. Moreover, the inhibition at 1 µM in assay [2] came out at 106%. The same compound yielded an IC50 in assay [3] below 10 nM.
As for `CN1CC2CN(c3ccc4ccccc4c3)CC2C1` (stereo not drawn) [Example 2, 2-methyl-5-(naphthalen-2-yl)octahydropyrrolo[3,4-c]pyrrole], the minimal effective dose in the assay on mice [1] (setting [5]) is 5 mg/kg. In addition, in assay [2] (setting [6]), the inhibition at 1 µM came to 97%. This compound came in with an IC50 in assay [3] below 10 nM.
Regarding `c1cc2cc(N3CCC4CNCC4CC3)ccc2s1` (stereo not drawn) [Example 7, 6-(Benzothiophen-5-yl)decahydropyrrolo[3,4-d]azepine maleate], in assay [2], the inhibition at 1 µM was 101%. Besides, the minimal effective dose in the assay with mice [4] (setting [7]) came to 10 mg/kg. The compound further showed an IC50 in assay [3] below 10 nM.
With `O=C(O)/C=C\C(=O)O.c1cc(N2CC3CNCC3C2)c2sccc2c1` (stereo not drawn) [Example 10, 2-(Benzo[b]thiophen-7-yl)octahydropyrrolo[3,4-c]pyrrole maleate], the minimal effective dose with mice [1] (setting [8]) amounted to 10 mg/kg. For the same compound, in assay [2], the inhibition at 1 µM is 86%. In addition, the IC50 in assay [3] was below 50 nM.
As to `CN1CC2CN(c3cccc4ccsc34)CC2C1.O=C(O)C(=O)O` (stereo not drawn) [Example 11, 2-(Benzo[b]thiophen-7-yl)-5-methyloctahydropyrrolo[3,4-c]pyrrole oxalate], the minimal effective dose in the assay with mice [1] (setting [8]) stood at 10 mg/kg. Moreover, the inhibition at 1 µM in assay [2] (setting [6]) came out at 86%. Further, the IC50 in assay [3] is below 50 nM.
For the compound `O=C(O)/C=C\C(=O)O.c1cc(N2CC3CNCC3C2)c2ccsc2c1` (stereo not drawn) [Example 12, 2-(Benzo[b]thiophen-4-yl)octahydropyrrolo[3,4-c]pyrrole maleate], in the assay on mice [1] (setting [8]), the minimal effective dose was 3 mg/kg. Besides, in assay [2], the inhibition at 1 µM was found to be 101%. This compound displayed a concentration for half-maximal inhibition (IC50) in assay [3] below 50 nM.
The like results for `Br.CN1CC2CN(c3cccc4sccc34)CC2C1` (stereo not drawn) [Example 13, 2-(Benzo[b]thiophen-4-yl)-5-methyloctahydropyrrolo[3,4-c]pyrrole hydrobromide] were, in that order, 5 mg/kg, 70% and below 50 nM.
The like results for `O=C(O)/C=C\C(=O)O.c1cc2cc(N3CC4CNCC4C3)ccc2s1` (stereo not drawn) [Example 14, 2-(Benzo[b]thiophen-5-yl)octahydropyrrolo[3,4-c]pyrrole maleate] were, in that order, 3 mg/kg, 99% and below 10 nM.
Take `CN1CC2CN(c3ccc4sccc4c3)CC2C1.Cl` (stereo not drawn) [Example 15, 2-(Benzo[b]thiophen-5-yl)-5-methyloctahydropyrrolo[3,4-c]pyrrole hydrochloride]: the minimal effective dose in the assay on mice [1] (setting [5]) is 2.5 mg/kg. In addition, the inhibition at 1 µM in assay [2] (setting [6]) is 70%. The compound further showed an IC50 in assay [3] below 10 nM.
Take `Clc1ccc(N2CC3CNCC3C2)cc1Cl` (stereo not drawn) [Example 16, 2-(3,4-dichlorophenyl)octahydropyrrolo[3,4-c]pyrrole]: the minimal effective dose in the assay on mice [1] (setting [8]) is 3 mg/kg. Moreover, the inhibition at 1 µM in assay [2] (setting [6]) came out at 96%. This compound also displayed an IC50 in assay [3] below 10 nM.
For `CN1CC2CN(c3ccc(Cl)c(Cl)c3)CC2C1` (stereo not drawn) [Example 17, 2-(3,4-dichlorophenyl)-5-methyloctahydropyrrolo[3,4-c]pyrrole], the minimal effective dose in the assay on mice [1] (setting [5]) was determined as 5 mg/kg. In addition, in assay [2] (setting [6]), the inhibition at 1 µM amounted to 93%. In assay [3], the IC50 was below 10 nM.
Turning to `O=C(O)/C=C\C(=O)O.c1ccc2sc(N3CC4CNCC4C3)cc2c1` (stereo not drawn) [Example 22, 2-(Benzo[b]thiophen-2-yl)octahydropyrrolo[3,4-c]pyrrole maleate], the minimal effective dose with mice [4] (setting [9]) turned out to be 10 mg/kg. Moreover, the IC50 in assay [3] is below 50 nM.
Consider `CCN1CC2CN(c3ccc4ccccc4c3)CC2C1.O=C(O)C(=O)O` (stereo not drawn) [Example 25, 2-ethyl-5-(naphthalen-2-yl)octahydropyrrolo[3,4-c]pyrrole oxalate], for which the minimal effective dose in the assay with mice [4] (setting [7]) turned out to be 10 mg/kg.
Take `CN1CC2CN(c3cccc(Cl)c3Cl)CC2C1.O=C(O)C(=O)O` (stereo not drawn) [Example 28, 2-(2,3-dichlorophenyl)-5-methyloctahydropyrrolo[3,4-c]pyrrole oxalate]: the inhibition at 1 µM in assay [2] was found to be 82%. Also, the minimal effective dose in the assay on mice [4] (setting [9]) turned out to be 10 mg/kg. For the same compound, the IC50 in assay [3] was below 200 nM.
As to `Fc1c(N2CC3CNCC3C2)ccc2ccccc12.O=C(O)/C=C\C(=O)O` (stereo not drawn) [Example 31, 2-(1-fluoronaphthalen-2-yl)octahydropyrrolo[3,4-c]pyrrole maleate], in the assay on mice [1] (setting [5]), the minimal effective dose was 20 mg/kg. In addition, in assay [2], the inhibition at 1 µM is 101%. Moreover, the IC50 in assay [3] is below 10 nM.
For `CN1CC2CN(c3ccc4ccccc4c3F)CC2C1.O=C(O)/C=C\C(=O)O` (stereo not drawn) [Example 32, 2-(1-fluoronaphthalen-2-yl)-5-methyloctahydropyrrolo[3,4-c]pyrrole maleate], the minimal effective dose in the assay on mice [1] (po, FST, dose significantly reducing immobility time of mice, read-out: Effective dose) amounted to 20 mg/kg. In assay [2], the inhibition at 1 µM amounted to 103%. Moreover, the IC50 in assay [3] was below 10 nM.
On to `Clc1ccc(N2CCC3CNCC3CC2)cc1Cl` (stereo not drawn) [Example 35, 6-(3,4-dichlorophenyl)decahydropyrrolo[3,4-d]azepine], for which, in the assay with mice [1] (setting [5]), the minimal effective dose was 20 mg/kg. For the same compound, the inhibition at 1 µM in assay [2] (setting [6]) is 98%. The compound also had an IC50 in assay [3] below 10 nM.
Turning to `O=C(O)/C=C\C(=O)O.c1cc(N2CCC3CNCC3CC2)c2sccc2c1` (stereo not drawn) [Example 36, 6-(Benzo[b]thiophen-7-yl)decahydropyrrolo[3,4-d]azepine maleate], the inhibition at 1 µM in assay [2] was 89%. In addition, the minimal effective dose in the assay on mice [4] (setting [7]) is 10 mg/kg. Moreover, the IC50 in assay [3] was below 10 nM.
As to `Clc1cccc(N2CCC3CNCC3CC2)c1Cl.O=C(O)/C=C\C(=O)O` (stereo not drawn) [Example 37, 6-(2,3-dichlorophenyl)decahydropyrrolo[3,4-d]azepine maleate], in the assay with mice [1] (setting [8]), the minimal effective dose stood at 10 mg/kg. In addition, the inhibition at 1 µM in assay [2] turned out to be 80%. The 50% inhibitory concentration (IC50) in assay [3] is below 10 nM.
Take `O=C(O)/C=C\C(=O)O.c1cc(N2CCC3CNCC3CC2)c2ccsc2c1` (stereo not drawn) [Example 38, 6-(Benzo[b]thiophen-4-yl)decahydropyrrolo[3,4-d]azepine maleate]: in assay [2], the inhibition at 1 µM is 103%. Also, in the assay with mice [4] (setting [7]), the minimal effective dose was 10 mg/kg. The concentration for half-maximal inhibition (IC50) in assay [3] was below 10 nM.
As to `O=C(O)/C=C\C(=O)O.c1ccc2cc(N3CCC4CNCC4CC3)ccc2c1` (stereo not drawn) [Example 39, 6-(naphthalen-2-yl)decahydropyrrolo[3,4-d]azepine maleate], the inhibition at 1 µM in assay [2] is 92%. In addition, in the assay with mice [4] (setting [7]), the minimal effective dose is 10 mg/kg. In assay [3], this compound had an IC50 below 10 nM.
The like results for `O=C(O)/C=C\C(=O)O.c1cc(N2CC3CCNCCC3C2)c2ccsc2c1` (stereo not drawn) [Example 41, 2-(Benzo[b]thiophen-4-yl)decahydropyrrolo[3,4-d]azepine maleate] were, in that order, 86%, 10 mg/kg and below 10 nM.
Turning to `Cl.c1ccc2sc(C3CC4CNCC4C3)cc2c1` (stereo not drawn) [Example 50, 5-(benzothiophen-2-yl)octahydrocyclopenta[c]pyrrole hydrochloride], the minimal effective dose in the assay on mice [1] (setting [8]) was 10 mg/kg. Moreover, the inhibition at 1 µM in assay [2] (setting [6]) came out at 83%. Besides, the IC50 in assay [3] was below 200 nM.
Turning to `Cl.c1ccc2cc(C3CC4CNCC4C3)ccc2c1` (stereo not drawn) [Example 55, 5-(naphthalen-2-yl)octahydrocyclopenta[c]pyrrole hydrochloride], in the assay on mice [1] (setting [5]), the minimal effective dose was 5 mg/kg. The inhibition at 1 µM in assay [2] (setting [6]) came out at 75%. Further, the IC50 in assay [3] is below 10 nM.
